Where “and” joins values, the source holds several entries; their conditions need not be identical. Identical values can stand only once. Where no end group is shown, it is not given here.
Assays:
VSV [1] = assay type: cell-based, Vesicular stomatitis virus (VSV)
VSV [2] = assay type: cell-based, Vesicular stomatitis virus (VSV); remark: listed apart in the source

Row | Substance | Amount of virus in culture supernatant (VSV [1]) | observation field occupied by a monolayer of living cells (VSV [2])
1 | VLAVIIGFVILMFLIKLIGVLKKRTLRKNDRKKR-NH2 [Sample 3] | 4.7 Log10 TCID 50/mL and 4.5 Log10 TCID 50/mL | ≥ 90%
2 | FFFIIGLIIGLFLVLRVGIHLKKRTLRKNDRKKR-NH2 [Sample 2] | 4.7 Log10 TCID 50/mL and 3.5 Log10 TCID 50/mL | 
3 | MAIVGIVLLIVVTFLAIKTKKRTLRKNDRKKR-NH2 [Sample 1] | 4.4 Log10 TCID 50/mL and 5 Log10 TCID 50/mL | 

Reference: patent US11155582B2, “Antiviral peptide and use thereof” (priority 2018, dated 2021)
